target: human PDE4D catalytic domain (Homo sapiens (Human), UniProt Q08499); assay: PDE4 Assay (TR-FRET, FAM-cAMP cleavage); assay type: biochemical; conditions: Table 16, Examples 277-296; read-out: PDE4 IC50 range
Summary of the method: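 PDE4D catalytic domain (S380-L740) incubated briefly with unlabelled cAMP plus FAM-cAMP and titrated compound. Reaction stopped with binding buffer holding metal-ion nanoparticles that bind AMP phospho groups and Tb donor, and AMP formation read by TR-FRET. IC50 versus controls, reported as ranges (nM).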

Sequence of human PDE4D catalytic domain (Q08499 380-740): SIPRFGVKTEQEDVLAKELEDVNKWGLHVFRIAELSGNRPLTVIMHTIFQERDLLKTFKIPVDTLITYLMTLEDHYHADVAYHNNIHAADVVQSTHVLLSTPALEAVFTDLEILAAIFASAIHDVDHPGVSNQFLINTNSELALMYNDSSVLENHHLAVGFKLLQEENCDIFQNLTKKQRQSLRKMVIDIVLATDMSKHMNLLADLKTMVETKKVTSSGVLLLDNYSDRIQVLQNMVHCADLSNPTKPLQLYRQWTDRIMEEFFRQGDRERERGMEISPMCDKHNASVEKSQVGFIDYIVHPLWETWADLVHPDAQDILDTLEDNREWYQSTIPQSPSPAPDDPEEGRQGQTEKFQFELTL

| Compound | IC50 [µM] |
| --- | --- |
| CCn1nc(C[C@@H](C)COC(=O)c2cn(C)cn2)c2c1C(=O)NCC1(CCOCC1)C2 [Example 280, [(2R)-3-(1-ethyl-8-oxo-spiro[6,7-dihydro-4H-pyrazolo[3,4-c]azepine-5,4′-tetrahydropyran]-3-yl)-2-methyl-propyl] 1-methylimidazole-4-carboxylate] | < 0.1 |
| CCn1nc(C[C@@H](C)COC(=O)c2cnsc2)c2c1C(=O)NCC1(CCOCC1)C2 [Example 284, [(2R)-3-(1-ethyl-8-oxo-spiro[6,7-dihydro-4H-pyrazolo[3,4-c]azepine-5,4′-tetrahydropyran]-3-yl)-2-methyl-propyl] isothiazole-4-carboxylate] | < 0.1 |
| CCn1nc(C[C@@H](C)COC(=O)c2ccn(C)n2)c2c1C(=O)NCC1(CCOCC1)C2 [Example 278, [(2R)-3-(1-ethyl-8-oxo-spiro[6,7-dihydro-4H-pyrazolo[3,4-c]azepine-5,4′-tetrahydropyran]-3-yl)-2-methyl-propyl] 1-methylpyrazole-3-carboxylate] | < 0.1 |

same assay, conditions: human PDE4D catalytic domain (UniProt Q08499 [S380-L740]); 50% inhibition of substrate cleavage; read-out: PDE4 IC50 range

| Compound | IC50 [µM] |
| --- | --- |
| CCn1nc(CCCOC(=O)c2ccc(C(=O)N3CCN(C(C)=O)CC3)cc2)c2c1C(=O)NCC1(CCOCC1)C2 [Example 111, 3-(1-ethyl-8-oxo-spiro[6,7-dihydro-4H-pyrazolo[3,4-c]azepine-5,4′-tetrahydropyran]-3-yl)propyl 4-(4-acetylpiperazine-1-carbonyl)benzoate] | < 0.1 |
| CCn1nc(CCCCOC(=O)c2ccc(C)cc2)c2c1C(=O)NCC1(CCOCC1)C2 [Example 123, 4-(1-ethyl-8-oxo-spiro[6,7-dihydro-4H-pyrazolo[3,4-c]azepine-5,4′-tetrahydropyran]-3-yl)butyl 4-methylbenzoate] | < 0.1 |
| CCn1nc(CCCOC(=O)c2ccc(C(F)(F)F)cc2F)c2c1C(=O)NCC1(CCOCC1)C2 [Example 70, 3-(1-ethyl-8-oxo-spiro[6,7-dihydro-4H-pyrazolo[3,4-c]azepine-5,4′-tetrahydro-pyran]-3-yl)propyl 2-fluoro-4-(trifluoromethyl)benzoate] | < 0.1 |
| CCn1nc(CCCOC(=O)C2CCOC2)c2c1C(=O)NCC1(CCOCC1)C2 (stereo not drawn) [Example 236, 3-(1-ethyl-8-oxo-spiro[6,7-dihydro-4H-pyrazolo[3,4-c]azepine-5,4′-tetrahydro-pyran]-3-yl)propyl tetrahydrofuran-3-carboxylate] | < 0.1 |
| CCn1nc(CCCOC(=O)c2ccc(S(=O)(=O)C3CCCC3)cc2)c2c1C(=O)NCC1(CCOCC1)C2 [Example 94, 3-(1-ethyl-8-oxo-spiro[6,7-dihydro-4H-pyrazolo[3,4-c]azepine-5,4′-tetrahydropyran]-3-yl)propyl 4-cyclopentylsulfonylbenzoate] | < 0.1 |
| CCn1nc(CC(C)(C)COC(=O)c2ccc(C(N)=O)cc2)c2c1C(=O)NCC1(CCOCC1)C2 [Example 218, [3-(1-ethyl-8-oxo-spiro[6,7-dihydro-4H-pyrazolo[3,4-c]azepine-5,4′-tetrahydropyran]-3-yl)-2,2-dimethyl-propyl] 4-carbamoylbenzoate] | < 0.1 |
| CCn1nc(CCCOC(=O)c2cn(C)cn2)c2c1C(=O)NCC1(CCOCC1)C2 [Example 239, 3-(1-ethyl-8-oxo-spiro[6,7-dihydro-4H-pyrazolo[3,4-c]azepine-5,4′-tetrahydropyran]-3-yl)propyl 1-methylimidazole-4-carboxylate] | < 0.1 |
| CCn1nc(CC(C)(C)COC(=O)c2ccc(C(=O)N3CCN(C(C)=O)CC3)cc2)c2c1C(=O)NCC1(CCOCC1)C2 [Example 225, [3-(1-ethyl-8-oxo-spiro[6,7-dihydro-4H-pyrazolo[3,4-c]azepine-5,4'-tetrahydropyran]-3-yl)-2,2-dimethyl-propyl] 4-(4-acetylpiperazine-1-carbonyl)benzoate] | < 0.1 |
| CCn1nc(CC(C)(C)COC(=O)c2ccc(C(=O)N3CCOCC3)cc2)c2c1C(=O)NCC1(CCOCC1)C2 [Example 223, [3-(1-ethyl-8-oxo-spiro[6,7-dihydro-4H-pyrazolo[3,4-c]azepine-5,4′-tetrahydropyran]-3-yl)-2,2-dimethyl-propyl] 4-(morpholine-4-carbonyl)benzoate] | < 0.1 |
| CCn1nc(CCCOC(=O)c2ccc(C)cc2)c2c1C(=O)NCC1(CCOCC1)C2 [Example 8, 3-(1-ethyl-8-oxo-spiro[6,7-dihydro-4H-pyrazolo[3,4-c]azepine-5,4′-tetrahydropyran]-3-yl)propyl 4-methylbenzoate] | < 0.1 |
| CCn1nc(CCCOC(=O)c2ccc(S(=O)(=O)CC)cc2)c2c1C(=O)NCC1(CCOCC1)C2 [Example 77, 3-(1-ethyl-8-oxo-spiro[6,7-dihydro-4H-pyrazolo[3,4-c]azepine-5,4′-tetrahydro-pyran]-3-yl)propyl 4-ethylsulfonylbenzoate] | < 0.1 |
| CCn1nc(CCCOC(=O)c2cccc(C(=O)N3CCOCC3)c2)c2c1C(=O)NCC1(CCOCC1)C2 [Example 118, 3-(1-ethyl-8-oxo-spiro[6,7-dihydro-4H-pyrazolo[3,4-c]azepine-5,4′-tetrahydropyran]-3-yl)propyl 3-(morpholine-4-carbonyl)benzoate] | < 0.1 |
| CCn1nc(CCCOC(=O)c2cccc(S(=O)(=O)N3CCN(C(C)=O)CC3)c2)c2c1C(=O)NCC1(CCOCC1)C2 [Example 101, 3-(1-ethyl-8-oxo-spiro[6,7-dihydro-4H-pyrazolo[3,4-c]azepine-5,4′-tetrahydropyran]-3-yl)propyl 3-(4-acetylpiperazin-1-yl)sulfonylbenzoate] | < 0.1 |
| CCn1nc(CCCOC(=O)C(C)C)c2c1C(=O)NCC1(CCOCC1)C2 [Example 4, 3-(1-ethyl-8-oxo-spiro[6,7-dihydro-4H-pyrazolo[3,4-c]azepine-5,4′-tetrahydropyran]-3-yl)propyl 2-methylpropanoate] | < 0.1 |
| CCn1nc(CCCOC(=O)c2cc(C)ns2)c2c1C(=O)NCC1(CCOCC1)C2 [Example 253, 3-(1-ethyl-8-oxo-spiro[6,7-dihydro-4H-pyrazolo[3,4-c]azepine-5,4′-tetrahydropyran]-3-yl)propyl 3-methylisothiazole-5-carboxylate] | < 0.1 |
| CCc1cc(C(=O)OCCCc2nn(CC)c3c2CC2(CCOCC2)CNC3=O)nn1C [Example 259, 3-(1-ethyl-8-oxo-spiro[6,7-dihydro-4H-pyrazolo[3,4-c]azepine-5,4′-tetrahydro-pyran]-3-yl)propyl 5-ethyl-1-methyl-pyrazole-3-carboxylate] | < 0.1 |
| CCn1nc(CCCOC(=O)c2cccc(S(=O)(=O)N3CCCC3)c2)c2c1C(=O)NCC1(CCOCC1)C2 [Example 95, 3-(1-ethyl-8-oxo-spiro[6,7-dihydro-4H-pyrazolo[3,4-c]azepine-5,4′-tetrahydro-pyran]-3-yl)propyl 3-pyrro-lidin-1-ylsulfonylbenzoate] | < 0.1 |
| CCn1nc(CCCOC(=O)c2cnc(C)o2)c2c1C(=O)NCC1(CCOCC1)C2 [Example 241, 3-(1-ethyl-8-oxo-spiro[6,7-dihydro-4H-pyrazolo[3,4-c]azepine-5,4′-tetrahydropyran]-3-yl)propyl 2-methyloxazole-5-carboxylate] | < 0.1 |
| CCn1nc(C[C@@H](C)COC(=O)c2ccc(C(=O)N3CCN(C(C)=O)CC3)cc2)c2c1C(=O)NCC1(CCOCC1)C2 [Example 176, [(2R)-3-(1-ethyl-8-oxo-spiro[6,7-dihydro-4H-pyrazolo[3,4-c]azepine-5,4′-tetrahydropyran]-3-yl)-2-methyl-propyl] 4-(4-acetylpiperazine-1-carbonyl)benzoate] | < 0.1 |
| CCn1nc(CCCOC(=O)c2cccc(OC)c2F)c2c1C(=O)NCC1(CCOCC1)C2 [Example 39, 3-(1-ethyl-8-oxo-spiro[6,7-dihydro-4H-pyrazolo[3,4-c]azepine-5,4′-tetrahydropyran]-3-yl)propyl 2-fluoro-3-methoxy-benzoate] | < 0.1 |
| CCn1nc(C[C@@H](C)COC(=O)[C@H]2CC[C@@H](O)CC2)c2c1C(=O)NCC1(CCOCC1)C2 [Example 147, [(2R)-3-(1-ethyl-8-oxo-spiro[6,7-dihydro-4H-pyrazolo[3,4-c]azepine-5,4′-tetrahydropyran]-3-yl)-2-methyl-propyl] 4-hydroxy-cyclohexanecarboxylate] | < 0.1 |
| CCn1cc(C(=O)OCCCc2nn(CC)c3c2CC2(CCOCC2)CNC3=O)cn1 [Example 250, 3-(1-ethyl-8-oxo-spiro[6,7-dihydro-4H-pyrazolo[3,4-c]azepine-5,4′-tetrahydropyran]-3-yl)propyl 1-ethylpyrazole-4-carboxylate] | < 0.1 |
| CCn1nc(CCCOC(=O)c2ccc(C(=O)N(C)C)cc2)c2c1C(=O)NCC1(CCOCC1)C2 [Example 106, 3-(1-ethyl-8-oxo-spiro[6,7-dihydro-4H-pyrazolo[3,4-c]azepine-5,4′-tetrahydro-pyran]-3-yl)propyl 4-(dimethylcarbamoyl)benzoate] | < 0.1 |
| CCn1nc(CCCOC(=O)c2cc(C)nc(C)c2)c2c1C(=O)NCC1(CCOCC1)C2 [Example 258, 3-(1-ethyl-8-oxo-spiro[6,7-dihydro-4H-pyrazolo[3,4-c]azepine-5,4′-tetrahydro-pyran]-3-yl)propyl 2,6-dimethylpyridine-4-carboxylate] | < 0.1 |
| CCn1nc(CCCCOC(=O)C2CCOC2)c2c1C(=O)NCC1(CCOCC1)C2 (stereo not drawn) [Example 265, 4-(1-ethyl-8-oxo-spiro[6,7-dihydro-4H-pyrazolo[3,4-c]azepine-5,4′-tetrahydropyran]-3-yl)butyl tetrahydrofuran-3-carboxylate] | < 0.1 |
| CCn1nc(CCCOC(=O)c2ccc(Cl)cc2)c2c1C(=O)NCC1(CCOCC1)C2 [Example 22, 3-(1-ethyl-8-oxo-spiro[6,7-dihydro-4H-pyrazolo[3,4-c]azepine-5,4′-tetrahydropyran]-3-yl)propyl 4-chlorobenzoate] | < 0.1 |
| CCn1nc(CCCCOC(=O)c2cnsc2)c2c1C(=O)NCC1(CCOCC1)C2 [Example 268, 4-(1-ethyl-8-oxo-spiro[6,7-dihydro-4H-pyrazolo[3,4-c]azepine-5,4′-tetrahydropyran]-3-yl)butyl isothiazole-4-carboxylate] | < 0.1 |
